Molecules are shown by their SMILES. pIC50: −log10 of the molar value. Where two headings read alike, the source gives them in different places.

In one data set the target is T1, TYK2-JH2 domain (Homo sapiens, UniProt P29597).
T1 construct: IC50 on JH2 domain activity (nM)
Kind of data set: Binding activity test for JH2 domain of TYK2 (Tb-antibody/tracer FRET). To be noted: for JAK1/TYK2 selectivity: ratio JAK1-JH2 IC50 / TYK2-JH2 IC50. In outline: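 Compounds tested as 11-point 3-fold serial dilutions against the JH2 domain in a Tb-antibody/tracer FRET binding format. Plates incubated 60 min at 25° C, then overnight at 4° C, before FRET reading.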

In a further data set the target is T2, JAK1-JH2 domain (Homo sapiens, UniProt P23458).
T2 construct: IC50 on JH2 domain activity (nM)
The data set can be described thus: Binding activity test for JH2 domain of JAK1 (Tb-antibody/tracer FRET). Here is the method: Binding Activity Test for […] Domain of JAK1 and TYK2 The compounds are prepared in DMSO for 200× top dose, then serial dilute it with 27-fold for 3 more points. Add 8 μL/well in echo source plate, echo will add 75 nL/well with 3-fold serial dilution for 11 points in assay plate. 75 nL DMSO for high control and low control. […] For low control, add 5 μL/well assay buffer. And then spin down at 1000 rpm and centrifuge for 30 seconds. After enzyme system prepared, add 5 μL of Tb-antibody solution into each wells of assay plate. Spin down at 1000 rpm and centrifuge for 30 sec. After Tb-antibody added, also add 5 μL of tracer into the assay plate. Spin down at 1000 rpm and centrifuge for 30 sec. Incubate for 60 mins at 25° C. firstly and then continue to incubate the plate at 4° C. overnight. Read by envision in FRET mode. The Luminescence value was recorded by a multi-label reader Envision (PerkinElmer).

Data set [1] has as its target T3, Ba/F3-FL-TYK2-P760L cells (Homo sapiens, UniProt P29597, P760L, cells depend on it).
T3 construct: BaF3-FL-T2P760L (nM)
Kind of data set: Anti-proliferative assay, Ba/F3-FL-TYK2-P760L cells (Cell-Titer Glo). It counts as cell-based. Particulars: 72 h, read-out: BaF3-FL-T2P760L IC50. An outline of the steps:
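Ba/F3 cells made IL-3-independent by TEL-fused or full-length mutant JAK-family kinases, seeded at 2000/well and dosed after 24 h with 9 three-fold dilutions topping at 20 μM. Viability after 72 h at 37 °C, 5% CO2 by Cell-Titer Glo ATP luminescence.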

Data set [2] in a line: Microsomal metabolic stability assay. It counts as in vitro ADME. Particulars: pH 7.4, 0.5 mg/mL protein, 1 μM compound. An outline of the steps: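 Test article at 1 μM with 0.5 mg/mL microsomal protein and 2 mM NADPH, in 100 mM potassium phosphate pH 7.4 with 1.0 mM EDTA at 37 °C. Sampled at 0–45 min and quantified by LC/MS/MS. T1/2 from the slope of ln % remaining vs time.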

A short description of data set [3]: Hepatocytes metabolic stability assay. Particulars: cryopreserved hepatocytes, human hepatocytes, 1.0×10^6 cells/mL; for CLint scaled at 1 μM: read-out: Human hepatocyte Clint(liver); for half-life at 1 μM: read-out: Human hepatocyte stability T1/2. It counts as in vitro ADME. How it is done:
Hepatocytes Metabolic Stability Assay
The vials of cryopreserved hepatocytes were removed from the liquid nitrogen container and immediately immersed in a 37° C. water bath for approximately 2 min. The melted ice pellets were transferred into tubes containing 50 mL of pre-warmed thawing medium and mixed well by gently inverting the tubes, and then centrifuged at 500 rpm for 3 minutes at room temperature. The supernatants were discarded, and cell pellets were re-suspended by adding appropriate volumes of pre-warmed incubation medium. The cells viability of each species was determined using Trypan Blue exclusion. Add 50 μL of pre-warmed 2× dosing solution to the wells designated for different time points. Then 50 μL of cells suspension (2×10^6 cells/mL) were added into appropriate wells at corresponding time points of T15, T30, T60, T120. Start timing and put the plate in an incubator at 37° C. For TO sample, add 300 μL of ACN containing internal standard to the wells, mix gently, then add 50 μL of pre-warmed hepatocytes solution (2×10^6 cells/mL). The concentration of test compound was 1 μM and 1.0×10^6 cells/mL in the final incubation. At each corresponding time point, test and control compounds reaction samples were stopped by adding 300 μL acetonitrile containing internal standard. All sample plates were thoroughly mixed and centrifuged at 5000×g for 15 minutes. The supernatants were diluted at ratio of 1:1 with ultra-pure water for test and positive controls. Then submitted for LC-MS/MS analysis.
The analyte/internal standard peak area ratios were converted to percentage remaining with the following equation: […]
The in vitro elimination constant, k of test compounds and control compounds were calculated from a log linear plot of % Remaining versus time, then the half-life (T1/2), the estimation of the in vitro hepatic intrinsic clearance (CLint) values were calculated from substrate disappearance rate in hepatocytes incubation: […]

The mark [4] stands for this setting: dog liver microsomes, read-out: Dog LM Clint.
Setting [5] is: dog liver microsomes, read-out: Dog LM T½.
Where [6] appears, read: human liver microsomes, read-out: Human LM Clint.
Setting [7] is: human liver microsomes, read-out: Human LM T½.
Setting [8] is: rat liver microsomes, read-out: Rat LM Clint.
[9] abbreviates: rat liver microsomes, read-out: Rat LM T½.

T1 sequence (P29597 589-875 limits assumed): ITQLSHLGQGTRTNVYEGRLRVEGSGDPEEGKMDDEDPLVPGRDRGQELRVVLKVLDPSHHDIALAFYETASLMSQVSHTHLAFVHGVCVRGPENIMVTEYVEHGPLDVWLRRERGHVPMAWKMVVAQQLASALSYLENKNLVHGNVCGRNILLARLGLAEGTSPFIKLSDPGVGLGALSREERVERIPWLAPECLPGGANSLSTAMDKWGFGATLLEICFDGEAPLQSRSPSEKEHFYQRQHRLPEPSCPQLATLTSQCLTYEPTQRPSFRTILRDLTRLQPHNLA
T3 sequence (P29597 whole entry P760L): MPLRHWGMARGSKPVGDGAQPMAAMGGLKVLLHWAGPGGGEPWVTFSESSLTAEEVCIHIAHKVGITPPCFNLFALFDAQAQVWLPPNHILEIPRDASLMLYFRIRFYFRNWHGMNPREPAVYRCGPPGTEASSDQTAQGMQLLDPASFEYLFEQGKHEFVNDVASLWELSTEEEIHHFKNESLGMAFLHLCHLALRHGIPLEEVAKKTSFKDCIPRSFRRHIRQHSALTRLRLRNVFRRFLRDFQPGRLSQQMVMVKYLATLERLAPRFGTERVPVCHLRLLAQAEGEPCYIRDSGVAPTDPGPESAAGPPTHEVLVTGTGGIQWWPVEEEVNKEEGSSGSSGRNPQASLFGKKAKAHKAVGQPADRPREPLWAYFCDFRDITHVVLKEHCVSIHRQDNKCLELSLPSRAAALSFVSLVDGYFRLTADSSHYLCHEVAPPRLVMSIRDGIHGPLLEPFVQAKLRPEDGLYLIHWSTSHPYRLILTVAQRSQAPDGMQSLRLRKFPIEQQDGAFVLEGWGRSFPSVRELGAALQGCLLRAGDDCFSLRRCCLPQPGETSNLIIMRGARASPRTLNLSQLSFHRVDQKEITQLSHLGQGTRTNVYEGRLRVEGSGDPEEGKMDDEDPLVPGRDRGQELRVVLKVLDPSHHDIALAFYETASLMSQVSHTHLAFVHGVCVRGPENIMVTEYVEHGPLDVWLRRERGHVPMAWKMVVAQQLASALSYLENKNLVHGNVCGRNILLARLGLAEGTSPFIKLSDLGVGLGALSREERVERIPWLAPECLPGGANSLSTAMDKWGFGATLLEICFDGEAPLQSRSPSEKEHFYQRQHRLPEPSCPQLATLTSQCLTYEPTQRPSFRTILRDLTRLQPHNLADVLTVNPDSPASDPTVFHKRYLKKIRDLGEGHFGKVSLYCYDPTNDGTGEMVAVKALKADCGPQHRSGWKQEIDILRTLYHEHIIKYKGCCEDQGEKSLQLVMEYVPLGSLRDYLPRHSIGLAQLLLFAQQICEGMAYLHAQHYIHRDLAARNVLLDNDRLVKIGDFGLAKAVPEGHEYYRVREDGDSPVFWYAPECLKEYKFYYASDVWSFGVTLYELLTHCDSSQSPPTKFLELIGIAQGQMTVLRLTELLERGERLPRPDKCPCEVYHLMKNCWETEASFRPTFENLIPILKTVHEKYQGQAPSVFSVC
T2 sequence (P23458 583-855 limits assumed): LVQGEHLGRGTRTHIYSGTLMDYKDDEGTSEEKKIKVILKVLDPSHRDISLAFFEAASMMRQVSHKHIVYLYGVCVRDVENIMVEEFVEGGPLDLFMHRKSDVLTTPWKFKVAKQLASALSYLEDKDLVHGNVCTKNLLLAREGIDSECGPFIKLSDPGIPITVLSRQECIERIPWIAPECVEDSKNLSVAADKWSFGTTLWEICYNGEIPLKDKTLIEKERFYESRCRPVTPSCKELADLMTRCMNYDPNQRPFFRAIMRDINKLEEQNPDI

Consider `[2H]C([2H])([2H])NC(=O)c1cnc(Nc2ccc(F)cn2)cc1Nc1ncc2cnn(CC)c2c1OC` [Example 263, 4-((1-Ethyl-7-methoxy-1H-pyrazolo[4,3-c]pyridin-6-yl)amino)-6-((5-fluoropyridin-2-yl)amino)-N-(methyl-d3)nicotinamide], for which the pIC50 on TYK2-JH2 domain is 9.54; on JAK1-JH2 domain, 7.60. The JAK1/TYK2 selectivity on TYK2-JH2 domain is 87.4. In data set [1], the GI50 was found to be 41.7 nM. Also, the microsomal CLint at 1 μM in data set [2] (setting [4]) was determined as 97.2 µL/min/mg; in data set [2] (setting [6]), 29.2 µL/min/mg; in data set [2] (setting [8]), 40.9 µL/min/mg. The half-life at 1 μM in data set [2] (setting [5]) stood at 0.238 h; in data set [2] (setting [7]) it was 0.791 h; in data set [2] (setting [9]), 0.566 h.
Turning to `[2H]C([2H])([2H])NC(=O)c1cnc(Nc2ccncn2)cc1Nc1ccc2cnn(C([2H])([2H])[2H])c2c1OC` [Example 153, 4-((7-Methoxy-1-(methyl-d3)-1H-indazol-6-yl)amino)-N-(methyl-d3)-6-(pyrimidin-4-ylamino)nicotinamide], the results for the pIC50 on TYK2-JH2 domain and at JAK1-JH2 domain were 9.34 and 7.82, respectively. In addition, the JAK1/TYK2 selectivity at TYK2-JH2 domain is given as 33.2. Further, in data set [1], the GI50 turned out to be 71.3 nM. The results for the microsomal CLint at 1 μM in data set [2] (setting [4]), in data set [2] (setting [6]) and in data set [2] (setting [8]) were 51.9 µL/min/mg, 50.4 µL/min/mg and 90.5 µL/min/mg, respectively. In addition, the half-life at 1 μM in data set [2] (setting [5]) came out at 0.445 h; in data set [2] (setting [7]), 0.458 h; in data set [2] (setting [9]), 0.255 h.
In the case of `[2H]C([2H])([2H])NC(=O)c1cnc(Nc2cnn(C3CC3)c2)nc1Nc1ccc2cnn(CC)c2c1OC([2H])([2H])[2H]` [Example 137, 2-((1-Cyclopropyl-1H-pyrazol-4-yl)amino)-4-((1-ethyl-7-(methoxy-d3)-1H-indazol-6-yl)amino)-N-(methyl-d3)pyrimidine-5-carboxamide], the GI50 in data set [1] stood at 335 nM. In addition, in data set [3], the CLint scaled at 1 μM came to 14.4 mL/min/kg and the half-life at 1 μM stood at 2.04 h.
`[2H]C([2H])([2H])NC(=O)c1nnc2cc1Nc1cc(cc(-c3ncn(C)n3)c1OC)COCc1nc(ccc1F)N2` [Example 67, 18-Fluoro-10-methoxy-N-(methyl-d3)-11-(1-methyl-1H-1,2,4-triazol-3-yl)-15-oxa-2,4,5,8,21-pentaazatetracyclo[15.3.1.1^{3,7}.1^{9,13}]tricosa-1(20),3,5,7(23),9(22),10,12,17(21),18-nonaene-6-carboxamide]: in data set [1], the GI50 was 44.4 nM. The microsomal CLint at 1 μM came out at 31.9 µL/min/mg in data set [2] (setting [4]), 7.54 µL/min/mg in data set [2] (setting [6]) and 47.4 µL/min/mg in data set [2] (setting [8]). For the same compound, the half-life at 1 μM in data set [2] (setting [5]) is 0.725 h; in data set [2] (setting [7]), 3.06 h; in data set [2] (setting [9]) it was 0.488 h; in data set [3] it was more than 4 h. Also, the CLint scaled at 1 μM in data set [3] is less than 7.35 mL/min/kg.
Regarding `[2H]C([2H])([2H])NC(=O)c1nnc(NC(=O)C2CC2)cc1Nc1cccc(-c2ncn(C)n2)c1OC` [Example 41, 6-(Cyclopropanecarboxamido)-4-((2-methoxy-3-(1-methyl-1H-1,2,4-triazol-3-yl)phenyl)amino)-N-(methyl-d3)pyridazine-3-carboxamide], in data set [3], the CLint scaled at 1 μM was less than 17.8 mL/min/kg and the half-life at 1 μM was more than 3.61 h.
Turning to `[2H]C([2H])([2H])NC(=O)c1cnc(Nc2ccn(C)n2)cc1Nc1ncc2cnn(CC)c2c1OC` [Example 264, 4-((1-Ethyl-7-methoxy-1H-pyrazolo[4,3-c]pyridin-6-yl)amino)-N-(methyl-d3)-6-((1-methyl-1H-pyrazol-3-yl)amino)nicotinamide], the pIC50 was 8.75 at TYK2-JH2 domain and 7.13 on JAK1-JH2 domain. The JAK1/TYK2 selectivity on TYK2-JH2 domain is reported as 41.4. Further, the GI50 in data set [1] was found to be 278 nM. Moreover, the values for the microsomal CLint at 1 μM in data set [2] (setting [4]), in data set [2] (setting [6]) and in data set [2] (setting [8]) were 16.9 µL/min/mg, 12.1 µL/min/mg and 15.4 µL/min/mg, respectively. Also, the half-life at 1 μM in data set [2] (setting [5]) stood at 1.37 h; in data set [2] (setting [7]) it was 1.91 h; in data set [2] (setting [9]), 1.5 h.
Regarding `[2H]C([2H])([2H])NC(=O)c1cnc(NC(=O)C2CC2)cc1Nc1ccc2cnn(CC(N)=O)c2c1OC` [Example 259, 4-((1-(2-Amino-2-oxoethyl)-7-methoxy-1H-indazol-6-yl)amino)-6-(cyclopropanecarboxamido)-N-(methyl-d3)nicotinamide], the pIC50 on TYK2-JH2 domain was 8.20; on JAK1-JH2 domain, 7.10. In addition, the JAK1/TYK2 selectivity on TYK2-JH2 domain came out at 12.7. For the same compound, the GI50 in data set [1] is more than 5000 nM. Also, the microsomal CLint at 1 μM amounted to 9.24 µL/min/mg in data set [2] (setting [4]), 4.39 µL/min/mg in data set [2] (setting [6]) and 4.7 µL/min/mg in data set [2] (setting [8]). Besides, the figures for the half-life at 1 μM in data set [2] (setting [5]), in data set [2] (setting [7]) and in data set [2] (setting [9]) were 2.5 h, 5.26 h and 4.92 h, respectively.
`[2H]C([2H])([2H])NC(=O)c1cnc(NC(=O)C2CC2)cc1Nc1ccn2ncc(CC(N)=O)c2c1OC` [Example 243, 4-((3-(2-Amino-2-oxoethyl)-4-methoxypyrazolo[1,5-a]pyridin-5-yl)amino)-6-(cyclopropanecarboxamido)-N-(methyl-d3)nicotinamide]: at TYK2-JH2 domain, the pIC50 was 8.46 and the JAK1/TYK2 selectivity is 37.7. Besides, on JAK1-JH2 domain, the negative logarithm of the IC50 (pIC50) was 6.89. In data set [1], the GI50 was more than 5000 nM.
On the same counts, the results for `[2H]C([2H])([2H])NC(=O)c1cnc(NC(=O)[C@@H]2C[C@H]2F)cc1Nc1ccc2cnn(CC)c2c1OC` (relative stereo) [Example 241, 4-((1-Ethyl-7-methoxy-1H-indazol-6-yl)amino)-6-(trans-2-fluorocyclopropanecarboxamido)-N-(methyl-d3)nicotinamide] are 9.27, 28.7, 7.81 and 161 nM.
Take `[2H]C([2H])([2H])NC(=O)c1cnc(Nc2ccc(F)cn2)cc1Nc1ccn2ncc(C#N)c2c1OC` [Example 257, 4-((3-Cyano-4-methoxypyrazolo[1,5-a]pyridin-5-yl)amino)-6-((5-fluoropyridin-2-yl)amino)-N-(methyl-d3)nicotinamide]: the pIC50 at TYK2-JH2 domain was 9.87; at JAK1-JH2 domain it was 8.50. For the same compound, the JAK1/TYK2 selectivity on TYK2-JH2 domain came out at 23.5. Also, the GI50 in data set [1] is 39.7 nM. Also, the values for the microsomal CLint at 1 μM in data set [2] (setting [4]), in data set [2] (setting [6]) and in data set [2] (setting [8]) were 9.01 µL/min/mg, 9.51 µL/min/mg and 20.2 µL/min/mg, respectively. Besides, the half-life at 1 μM in data set [2] (setting [5]) was 2.56 h; in data set [2] (setting [7]), 2.43 h; in data set [2] (setting [9]), 1.14 h.
Take `[2H]C([2H])([2H])NC(=O)c1cnc(NC(=O)C2CC2)cc1Nc1ccn2ncc(C(C)C(N)=O)c2c1OC` (stereo not shown) [Example 252, 4-((3-(1-Amino-1-oxopropan-2-yl)-4-methoxypyrazolo[1,5-a]pyridin-5-yl)amino)-6-(cyclopropanecarboxamido)-N-(methyl-d3)nicotinamide]: the pIC50 is 8.77 on TYK2-JH2 domain and 6.67 on JAK1-JH2 domain. Besides, on TYK2-JH2 domain, the JAK1/TYK2 selectivity is recorded as 125.69. In addition, the GI50 in data set [1] was more than 5000 nM.

A word on the pIC50: it is −log10 of the IC50, conventionally taken in molar units. Read a high pIC50 as a low IC50.
